Data from PMC7180948, “New Insights into 4-Anilinoquinazolines as Inhibitors of Cardiac Troponin I–Interacting Kinase (TNNi3K)” (Molecules, 2020).

Tests used:
Experiment in all cases: biochemical
Set-up in all cases: KINOMEscan competition binding panel (Eurofins DiscoverX), single concentration, percent inhibition
Details in all cases: read-out: 15 at 1 µM % inhibition
[1] = target: T1, ABL1(H396P)-nonphosphorylated (Homo sapiens, UniProt P00519, H396P)
T1 construct: nonphosphorylated
Procedure, shortened: (§1)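 Values come from single-concentration (1 µM) profiling in the Eurofins DiscoverX KINOMEscan competition-binding platform, which covers over 400 kinases.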

AMPK-alpha2 = target: T2, AMPK-alpha2 (Homo sapiens, UniProt P54646)
T2 construct: gene PRKAA2
Procedure, shortened: as §1

CAMK1G = CAMK1G (Homo sapiens, UniProt Q96NX5)
Procedure, shortened: as §1

CIT = CIT (Homo sapiens, UniProt O14578)
CIT, sequence (O14578 whole entry): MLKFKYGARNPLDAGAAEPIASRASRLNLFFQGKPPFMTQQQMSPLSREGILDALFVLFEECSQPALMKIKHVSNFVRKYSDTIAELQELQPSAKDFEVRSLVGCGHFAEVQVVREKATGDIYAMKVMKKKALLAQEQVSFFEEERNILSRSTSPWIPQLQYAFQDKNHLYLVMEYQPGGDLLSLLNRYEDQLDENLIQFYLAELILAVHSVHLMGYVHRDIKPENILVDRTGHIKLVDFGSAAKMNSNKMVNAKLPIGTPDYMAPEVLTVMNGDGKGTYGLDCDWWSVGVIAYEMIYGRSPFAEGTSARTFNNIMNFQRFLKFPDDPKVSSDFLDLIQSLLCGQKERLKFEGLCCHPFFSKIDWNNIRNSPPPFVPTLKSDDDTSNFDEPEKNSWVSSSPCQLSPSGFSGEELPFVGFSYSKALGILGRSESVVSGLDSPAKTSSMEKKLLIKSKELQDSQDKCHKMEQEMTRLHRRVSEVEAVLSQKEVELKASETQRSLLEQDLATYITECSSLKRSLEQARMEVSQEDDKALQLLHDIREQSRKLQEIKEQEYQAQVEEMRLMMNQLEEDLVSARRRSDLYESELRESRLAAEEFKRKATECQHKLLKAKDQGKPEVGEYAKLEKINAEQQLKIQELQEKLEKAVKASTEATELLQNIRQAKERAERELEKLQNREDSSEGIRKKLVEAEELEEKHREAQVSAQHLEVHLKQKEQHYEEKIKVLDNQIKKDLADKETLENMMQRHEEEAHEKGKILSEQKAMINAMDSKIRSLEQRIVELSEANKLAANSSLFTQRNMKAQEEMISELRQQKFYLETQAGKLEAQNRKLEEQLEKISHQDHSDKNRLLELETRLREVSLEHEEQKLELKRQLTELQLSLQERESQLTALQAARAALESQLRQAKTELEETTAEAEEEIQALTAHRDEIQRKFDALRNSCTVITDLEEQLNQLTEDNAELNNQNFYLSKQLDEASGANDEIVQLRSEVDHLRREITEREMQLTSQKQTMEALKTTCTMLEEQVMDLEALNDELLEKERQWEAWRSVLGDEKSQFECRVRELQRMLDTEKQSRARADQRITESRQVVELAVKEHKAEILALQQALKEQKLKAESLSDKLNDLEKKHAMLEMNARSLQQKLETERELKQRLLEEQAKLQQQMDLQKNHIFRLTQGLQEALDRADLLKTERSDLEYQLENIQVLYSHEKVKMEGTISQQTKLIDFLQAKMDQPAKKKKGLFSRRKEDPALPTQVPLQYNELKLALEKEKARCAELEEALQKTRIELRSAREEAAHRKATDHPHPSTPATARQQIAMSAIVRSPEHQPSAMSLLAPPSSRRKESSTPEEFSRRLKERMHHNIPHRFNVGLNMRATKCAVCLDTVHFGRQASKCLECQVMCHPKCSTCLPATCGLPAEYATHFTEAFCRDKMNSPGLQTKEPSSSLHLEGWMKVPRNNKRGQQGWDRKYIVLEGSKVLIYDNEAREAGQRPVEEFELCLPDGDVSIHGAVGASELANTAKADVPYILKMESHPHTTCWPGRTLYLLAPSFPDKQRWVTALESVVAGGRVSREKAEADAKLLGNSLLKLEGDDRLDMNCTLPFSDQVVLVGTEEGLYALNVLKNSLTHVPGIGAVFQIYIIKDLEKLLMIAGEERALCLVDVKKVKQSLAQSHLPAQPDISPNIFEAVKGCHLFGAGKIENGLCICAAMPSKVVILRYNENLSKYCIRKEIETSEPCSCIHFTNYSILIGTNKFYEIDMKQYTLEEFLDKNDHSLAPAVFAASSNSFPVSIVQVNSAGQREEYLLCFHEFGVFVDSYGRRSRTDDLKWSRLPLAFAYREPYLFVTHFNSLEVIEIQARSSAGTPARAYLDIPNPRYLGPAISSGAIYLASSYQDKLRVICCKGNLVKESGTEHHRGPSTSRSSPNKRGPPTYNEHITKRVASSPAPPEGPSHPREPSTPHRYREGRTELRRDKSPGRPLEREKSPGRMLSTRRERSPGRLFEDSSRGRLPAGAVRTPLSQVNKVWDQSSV
Procedure, shortened: as §1

CLK4 = CLK4 (Homo sapiens, UniProt Q9HAZ1)
Procedure, shortened: as §1

CSF1R-autoinhibited = CSF1R-autoinhibited (Homo sapiens, UniProt P07333)
CSF1R-autoinhibited, sequence (P07333 whole entry): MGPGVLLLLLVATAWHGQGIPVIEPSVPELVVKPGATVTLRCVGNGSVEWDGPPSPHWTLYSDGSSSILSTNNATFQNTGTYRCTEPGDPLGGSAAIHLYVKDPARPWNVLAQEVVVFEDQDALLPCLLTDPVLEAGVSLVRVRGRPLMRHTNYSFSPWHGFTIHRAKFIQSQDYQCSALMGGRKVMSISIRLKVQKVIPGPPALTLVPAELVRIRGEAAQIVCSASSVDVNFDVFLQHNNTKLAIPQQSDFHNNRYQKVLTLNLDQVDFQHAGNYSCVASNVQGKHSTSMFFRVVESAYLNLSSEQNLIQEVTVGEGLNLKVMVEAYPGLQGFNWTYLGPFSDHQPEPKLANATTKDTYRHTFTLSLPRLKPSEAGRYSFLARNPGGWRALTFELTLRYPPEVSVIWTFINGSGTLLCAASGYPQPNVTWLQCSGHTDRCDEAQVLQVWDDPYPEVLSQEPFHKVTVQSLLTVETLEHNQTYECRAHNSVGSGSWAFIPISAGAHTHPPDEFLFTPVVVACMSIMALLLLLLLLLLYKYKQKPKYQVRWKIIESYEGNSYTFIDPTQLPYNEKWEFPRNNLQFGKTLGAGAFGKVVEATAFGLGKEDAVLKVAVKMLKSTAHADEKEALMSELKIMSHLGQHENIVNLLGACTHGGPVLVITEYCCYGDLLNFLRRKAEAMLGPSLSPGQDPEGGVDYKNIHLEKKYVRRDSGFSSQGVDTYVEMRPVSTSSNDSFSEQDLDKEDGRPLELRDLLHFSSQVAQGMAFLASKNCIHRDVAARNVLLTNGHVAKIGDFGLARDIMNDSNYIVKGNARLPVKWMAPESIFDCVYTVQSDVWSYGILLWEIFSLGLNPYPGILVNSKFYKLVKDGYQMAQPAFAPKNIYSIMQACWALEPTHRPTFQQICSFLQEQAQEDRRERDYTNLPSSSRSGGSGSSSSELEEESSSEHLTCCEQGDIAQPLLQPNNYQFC
Procedure, shortened: as §1

EGFR(E746-A750del) = EGFR(E746-A750del) (Homo sapiens, UniProt P00533, DEL746-750)
EGFR(E746-A750del), sequence (P00533 with tags, fused parts or gaps DEL746-750): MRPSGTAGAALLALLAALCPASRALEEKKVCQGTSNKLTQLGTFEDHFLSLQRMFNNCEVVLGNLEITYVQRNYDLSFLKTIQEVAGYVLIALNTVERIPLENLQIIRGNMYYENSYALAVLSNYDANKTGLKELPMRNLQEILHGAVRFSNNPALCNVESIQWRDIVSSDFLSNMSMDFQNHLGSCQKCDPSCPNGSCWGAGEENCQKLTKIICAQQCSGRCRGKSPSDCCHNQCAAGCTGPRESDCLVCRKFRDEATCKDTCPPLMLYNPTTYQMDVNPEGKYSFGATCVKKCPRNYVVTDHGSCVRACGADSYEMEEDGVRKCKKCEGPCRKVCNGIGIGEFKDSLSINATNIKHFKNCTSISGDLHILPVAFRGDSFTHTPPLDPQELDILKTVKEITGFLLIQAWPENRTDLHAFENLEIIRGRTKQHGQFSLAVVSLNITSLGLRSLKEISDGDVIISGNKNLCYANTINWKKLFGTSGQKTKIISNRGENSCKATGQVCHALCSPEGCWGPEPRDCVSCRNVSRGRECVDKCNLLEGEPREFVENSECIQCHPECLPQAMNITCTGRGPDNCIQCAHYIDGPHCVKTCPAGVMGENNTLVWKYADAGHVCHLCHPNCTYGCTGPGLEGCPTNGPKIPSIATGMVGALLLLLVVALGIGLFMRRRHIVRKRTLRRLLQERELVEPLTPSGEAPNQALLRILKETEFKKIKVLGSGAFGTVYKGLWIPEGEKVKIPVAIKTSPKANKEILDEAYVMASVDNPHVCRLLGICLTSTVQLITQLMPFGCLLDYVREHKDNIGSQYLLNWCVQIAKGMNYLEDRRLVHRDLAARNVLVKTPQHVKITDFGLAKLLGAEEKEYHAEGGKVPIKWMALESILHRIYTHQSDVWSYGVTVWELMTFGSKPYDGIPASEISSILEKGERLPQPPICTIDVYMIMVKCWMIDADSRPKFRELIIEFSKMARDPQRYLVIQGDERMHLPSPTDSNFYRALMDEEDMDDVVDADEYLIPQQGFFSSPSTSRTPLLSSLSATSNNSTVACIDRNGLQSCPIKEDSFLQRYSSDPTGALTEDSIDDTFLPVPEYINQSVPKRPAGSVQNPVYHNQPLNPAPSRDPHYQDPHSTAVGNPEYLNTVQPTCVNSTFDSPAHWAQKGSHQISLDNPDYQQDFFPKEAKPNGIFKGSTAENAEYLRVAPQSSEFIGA
Procedure, shortened: as §1

HPK1 = target: T3, HPK1 (Homo sapiens, UniProt Q92918)
T3 construct: gene MAP4K1
Procedure, shortened: as §1

IKK-alpha = target: T4, IKK-alpha (Homo sapiens, UniProt O15111)
T4 construct: gene CHUK
Procedure, shortened: as §1

JNK1 = target: T5, JNK1 (Homo sapiens, UniProt P45983)
T5 construct: gene MAPK8
Procedure, shortened: as §1

KIT(V559D,T670I) = KIT(V559D,T670I) (Homo sapiens, UniProt P10721, T670I/V559D)
Procedure, shortened: as §1

LOK = target: T6, LOK (Homo sapiens, UniProt O94804)
T6 construct: gene STK10
Procedure, shortened: as §1

PCTK1 = target: T7, PCTK1 (Homo sapiens, UniProt Q00536)
T7 construct: gene CDK16
Procedure, shortened: as §1

PFTK1 = target: T8, PFTK1 (Homo sapiens, UniProt O94921)
T8 construct: gene CDK14
Procedure, shortened: as §1

PKAC-alpha = target: T9, PKAC-alpha (Homo sapiens, UniProt P17612)
T9 construct: gene PRKACA
Procedure, shortened: as §1

PKN2 = PKN2 (Homo sapiens, UniProt Q16513)
Procedure, shortened: as §1

PRKG2 = PRKG2 (Homo sapiens, UniProt Q13237)
Procedure, shortened: as §1

PRP4 = target: T10, PRP4 (Homo sapiens, UniProt Q13523)
T10 construct: gene PRPF4B
Procedure, shortened: as §1

[2] = target: T11, RPS6KA4(Kin.Dom.2-C-terminal) (Homo sapiens, UniProt O75676)
T11 construct: Kin.Dom.2-C-terminal
Procedure, shortened: as §1

SIK = target: T12, SIK (Homo sapiens, UniProt P57059)
T12 construct: gene SIK1
T12 sequence (P57059 whole entry): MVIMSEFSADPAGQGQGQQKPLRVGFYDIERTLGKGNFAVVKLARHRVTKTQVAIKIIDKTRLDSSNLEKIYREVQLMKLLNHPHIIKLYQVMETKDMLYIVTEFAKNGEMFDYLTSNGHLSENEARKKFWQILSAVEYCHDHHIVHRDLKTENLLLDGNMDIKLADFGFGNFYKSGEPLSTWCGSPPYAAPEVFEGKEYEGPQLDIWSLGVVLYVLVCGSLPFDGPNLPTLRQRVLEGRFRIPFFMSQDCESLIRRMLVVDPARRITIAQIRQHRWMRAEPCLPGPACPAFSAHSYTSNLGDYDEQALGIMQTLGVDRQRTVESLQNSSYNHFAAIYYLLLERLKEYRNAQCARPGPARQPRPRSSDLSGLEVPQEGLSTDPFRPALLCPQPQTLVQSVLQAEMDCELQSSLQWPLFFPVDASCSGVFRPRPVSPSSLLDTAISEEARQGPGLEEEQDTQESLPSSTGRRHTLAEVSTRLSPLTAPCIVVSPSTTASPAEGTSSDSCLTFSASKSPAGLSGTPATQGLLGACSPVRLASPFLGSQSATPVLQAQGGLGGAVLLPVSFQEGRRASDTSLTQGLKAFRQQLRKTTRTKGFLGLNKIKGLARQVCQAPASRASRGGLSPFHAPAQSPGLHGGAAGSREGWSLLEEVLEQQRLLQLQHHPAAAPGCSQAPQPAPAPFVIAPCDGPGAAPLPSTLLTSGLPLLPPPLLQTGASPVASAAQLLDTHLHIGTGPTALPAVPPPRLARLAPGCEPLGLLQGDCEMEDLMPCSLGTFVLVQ
Procedure, shortened: as §1

SNRK = SNRK (Homo sapiens, UniProt Q9NRH2)
Procedure, shortened: as §1

SRC = SRC (Homo sapiens, UniProt P12931)
Procedure, shortened: as §1

SRPK3 = SRPK3 (Homo sapiens, UniProt Q9UPE1)
Procedure, shortened: as §1

TLK1 = TLK1 (Homo sapiens, UniProt Q9UKI8)
Procedure, shortened: as §1

SMILES: CNS(=O)(=O)c1ccc(N(C)C)c(Nc2nc(C)nc3cc(OC)c(OC)cc23)c1 [compound 15, 3-((6,7-dimethoxy-2-methylquinazolin-4-yl)amino)-4-(dimethylamino)-N-methylbenzenesulfonamide]
- inhibition at 1 µM [1]: 31%
- inhibition at 1 µM (AMPK-alpha2): 2%
- inhibition at 1 µM (CAMK1G): 0%
- inhibition at 1 µM (CIT): 4%
- inhibition at 1 µM (CLK4): 5%
- inhibition at 1 µM (CSF1R-autoinhibited): 32%
- inhibition at 1 µM (EGFR(E746-A750del)): 31%
- inhibition at 1 µM (HPK1): 0%
- inhibition at 1 µM (IKK-alpha): 33%
- inhibition at 1 µM (JNK1): 14%
- inhibition at 1 µM (KIT(V559D,T670I)): 0%
- inhibition at 1 µM (LOK): 7%
- inhibition at 1 µM (PCTK1): 22%
- inhibition at 1 µM (PFTK1): 0%
- inhibition at 1 µM (PKAC-alpha): 0%
- inhibition at 1 µM (PKN2): 0%
- inhibition at 1 µM (PRKG2): 21%
- inhibition at 1 µM (PRP4): 52%
- inhibition at 1 µM [2]: 16%
- inhibition at 1 µM (SIK): 13%
- inhibition at 1 µM (SNRK): 13%
- inhibition at 1 µM (SRC): 0%
- inhibition at 1 µM (SRPK3): 1%
- inhibition at 1 µM (TLK1): 9%
